Here are results for one substance from patent US20140087991A1, “PEPTIDE PRODRUGS” (The Johns Hopkins University, priority 2006, published 2014).

Ends that are not written are not given here. * marks the point of attachment. Mu = morpholinocarbonyl, O=C(N1CCOCC1)*

The test system of this test is human MDA-MB231 breast cancer xenografts. In words: Antitumor effect in breast cancer xenografts. The format is in vivo, nude mice. Particulars: FIG. 6 legend, values not given.

Regarding “FAP activated prodrug: FAP selective peptide Mu-SGEAGPA (Mu = morpholinocarbonyl) coupled to 12 ADT (12-aminododecanoyl thapsigargin) (not fully specified (C-terminus); printed as Mu-SGEAGPA; also: coupled to 12ADT (12-aminododecanoyl thapsigargin))”, the antitumor effect entry is “antitumor effect”.
